Reference: patent US7745459B2, “Quinolizinone compound and use thereof as HIV integrase inhibitor” (Japan Tobacco Inc., priority 2004, dated 2010)

The molecules below were run against T1, HIV integrase (Human immunodeficiency virus type 1 group M subtype B, UniProt P12497, F1332H) (assay: Determination of enzyme (HIV integrase) inhibitory activity). Details: recombinant integrase protein (phenylalanine at codon 185 substituted by histidine); donor/target DNA, absorbance at 450 nm; read-out: Anti-integrase activity (IC50 value).
T1 construct: HIV integrase full length gene; made in house; host or cells: Escherichia coli BL21 (DE3)
Type: biochemical
Description: The following explains evaluation methods of the HIV integrase inhibitory activity of the compound of the present invention.
HIV integrase full length gene (J. Virol., 67, 425-437 (1993)) in which phenylalanine at codon 185 was substituted by histidine, was inserted between the restriction enzyme NdeI and XhoI sites of plasmid pET21a(+) (Novagen), whereby an integrase expression vector pET21a-INH was constructed.
Escherichia coli recombinant BL21 (DE3) transformed with plasmid pET21a-INH obtained in (i) was shake cultured at 37° C. in a liquid medium containing ampicillin. When the culture reached the logarithmic growth phase, isopropyl-β-D-thiogalactopyranoside was added to promote expression of integrase gene. The culture was continued for 3 hr to promote accumulation of the integrase protein. The recombinant E. coli was collected in pellets by centrifugal separation and preserved at −80° C.
The E. coli was suspended in Lysis buffer (20 mM HEPES (pH 7.5), 5 mM DTT, 10 mM CHAPS, 10% glycerol) containing 1 M sodium chloride and subjected to repeat pressurization and depressurization for rupture, and centrifugal separation at 4° C., 40,000×g, 60 min to recover a water-soluble fraction (supernatant). This was diluted 10-fold with Lysis buffer free of sodium chloride, mixed with SP-Sepharose (Pharmacia Corporation) and stirred at 4° C. for 60 min to allow adsorption of integrase protein to the resin. The resin was washed with Lysis buffer containing 100 mM sodium chloride and the integrase protein was eluted with Lysis buffer containing 1 M sodium chloride.
The eluted integrase protein solution was subjected to a Superdex 75 (Pharmacia Corporation) column for gel filtration. The protein was eluted with Lysis buffer containing 1 M sodium chloride.
The obtained fractions of the integrase protein were collected and preserved at −80° C.
The following DNA synthesized by Greiner was dissolved in TE buffer (10 mM Tris-hydrochloric acid (pH 8.0), 1 mM EDTA) and mixed with donor DNA, target DNA, and each complementary strand (+ and − strands) to 1 μM. The mixture was heated at 95° C. for 5 min, 80° C. for 10 min, 70° C. for 10 min, 60° C. for 10 min, 50° C. for 10 min and 40° C. for 10 min and kept at 25° C. to give a double stranded DNA, which was used for the test.
The donor DNA was diluted with TE buffer to 10 nM, of which 50 μl was added to each well of streptavidin-coated microtiter plate (Roche) and allowed to adsorb at 37° C. for 60 min. The plate was washed with phosphate buffer (Dulbecco's PBS, Sanko Junyaku Co., Ltd.) containing 0.1% Tween 20 and phosphate buffer. Then, a reaction mixture (70 μl) having the following composition, a test substance (10 μl) diluted with the reaction mixture and 100 μg/ml integrase protein (10 μl) were added to each well and reacted at 37° C. for 60 min. Composition of the reaction mixture: 30 mM MOPS (3-morpholinopropanesulfonic acid), 5 mM magnesium chloride, 3 mM DTT (dithiothreitol), 0.1 mg/ml BSA (bovine serum albumin), 5% glycerol, 10% DMSO (dimethyl sulfoxide), 0.01% Tween 20.
Then, 50 nM target DNA (10 μl) was added, and the mixture was reacted at 37° C. for 10 min and washed with phosphate buffer containing 0.1% Tween 20 to stop the reaction.
Then, 100 mU/ml peroxidase labeled anti-digoxigenin antibody solution (Roche, 100 μl) was added, and the mixture was reacted at 37° C. for 60 min, followed by washing with phosphate buffer containing 0.1% Tween 20.
A peroxidase color solution (Bio Rad, 100 μl) was added and allowed to react at room temperature for 4 min. The color reaction was stopped by adding 1N sulfuric acid (100 μl). The absorbance at 450 nm was measured. […]

| SMILES | IC50 |
| --- | --- |
| CS(=O)(=O)NCc1cc(C(=O)O)c(=O)n2cc(Cc3cccc(Cl)c3F)ccc12 [Example 23, 7-(3-chloro-2-fluorobenzyl)-1-(methylsulfonylaminomethyl)-4-oxo-4H-quinolizine-3-carboxylic acid] | 1000 to 10000 nM |
| COC(=O)NCc1cc(C(=O)O)c(=O)n2cc(Cc3cccc(Cl)c3F)ccc12 [Example 24, 7-(3-chloro-2-fluorobenzyl)-1-(methoxycarbonylaminomethyl)-4-oxo-4H-quinolizine-3-carboxylic acid] | 10 to 100 nM |
| NC(=O)Cc1cc(C(=O)O)c(=O)n2cc(Cc3cccc(Cl)c3F)ccc12 [Example 26, 1-carbamoylmethyl-7-(3-chloro-2-fluorobenzyl)-4-oxo-4H-quinolizine-3-carboxylic acid] | 10 to 100 nM |
| O=C(O)c1cc(NCCO)c2ccc(Cc3cccc(Cl)c3F)cn2c1=O [Example 27, 7-(3-chloro-2-fluorobenzyl)-1-(2-hydroxyethylamino)-4-oxo-4H-quinolizine-3-carboxylic acid] | 100 to 1000 nM |
| CS(=O)(=O)Nc1cc(C(=O)O)c(=O)n2cc(Cc3cccc(Cl)c3F)ccc12 [Example 29, 7-(3-chloro-2-fluorobenzyl)-1-methylsulfonylamino-4-oxo-4H-quinolizine-3-carboxylic acid] | 100 to 1000 nM |
| N#Cc1cc(C(=O)O)c(=O)n2cc(Cc3cccc(Cl)c3F)ccc12 [Example 33, 7-(3-chloro-2-fluorobenzyl)-1-cyano-4-oxo-4H-quinolizine-3-carboxylic acid] | 10 to 100 nM |
| O=C(O)c1cc(CCO)c2ncc(Cc3cccc(Cl)c3F)cn2c1=O [Example 34, 3-(3-chloro-2-fluorobenzyl)-9-(2-hydroxyethyl)-6-oxo-6H-pyrido[1,2-a]pyrimidine-7-carboxylic acid] | 100 to 1000 nM |
| CC(C)(C)OC(=O)NCc1cc(C(=O)O)c(=O)n2cc(Cc3cccc(Cl)c3F)ccc12 [Example 35, 1-(tert-butoxycarbonylamino)methyl-7-(3-chloro-2-fluorobenzyl)-4-oxo-4H-quinolizine-3-carboxylic acid] | 10 to 100 nM |
| O=C(O)Cc1cc(C(=O)O)c(=O)n2cc(Cc3cccc(Cl)c3F)ccc12 [Example 36, 1-carboxymethyl-7-(3-chloro-2-fluorobenzyl)-4-oxo-4H-quinolizine-3-carboxylic acid] | 10 to 100 nM |
| CC(C)(C)C(=O)NCc1cc(C(=O)O)c(=O)n2cc(Cc3cccc(Cl)c3F)ccc12 [Example 37, 7-(3-chloro-2-fluorobenzyl)-1-(2,2-dimethylpropionylamino)methyl-4-oxo-4H-quinolizine-3-carboxylic acid] | 10 to 100 nM |
| CN(C)Cc1cc(C(=O)O)c(=O)n2cc(Cc3cccc(Cl)c3F)ccc12 [Example 38, 7-(3-chloro-2-fluorobenzyl)-1-dimethylaminomethyl-4-oxo-4H-quinolizine-3-carboxylic acid] | 100 to 1000 nM |
| O=C(CO)NCc1cc(C(=O)O)c(=O)n2cc(Cc3cccc(Cl)c3F)ccc12 [Example 39, 7-(3-chloro-2-fluorobenzyl)-1-[(2-hydroxyacetylamino)methyl]-4-oxo-4H-quinolizine-3-carboxylic acid] | 10 to 100 nM |
| COCC(=O)NCc1cc(C(=O)O)c(=O)n2cc(Cc3cccc(Cl)c3F)ccc12 [Example 40, 7-(3-chloro-2-fluorobenzyl)-1-[(2-methoxyacetylamino)methyl]-4-oxo-4H-quinolizine-3-carboxylic acid] | 10 to 100 nM |
| CN(Cc1cc(C(=O)O)c(=O)n2cc(Cc3cccc(Cl)c3F)ccc12)C(=O)OC(C)(C)C [Example 41, 1-[(N-(tert-butoxycarbonyl)-N-methylamino)methyl]-7-(3-chloro-2-fluorobenzyl)-4-oxo-4H-quinolizine-3-carboxylic acid] | 10 to 100 nM |
| CCC(=O)NCc1cc(C(=O)O)c(=O)n2cc(Cc3cccc(Cl)c3F)ccc12 [Example 42, 7-(3-chloro-2-fluorobenzyl)-4-oxo-1-(propionylaminomethyl)-4H-quinolizine-3-carboxylic acid] | 10 to 100 nM |
| CCCC(=O)NCc1cc(C(=O)O)c(=O)n2cc(Cc3cccc(Cl)c3F)ccc12 [Example 43, 1-(butyrylaminomethyl)-7-(3-chloro-2-fluorobenzyl)-4-oxo-4H-quinolizine-3-carboxylic acid] | 10 to 100 nM |
| CC(C)C(=O)NCc1cc(C(=O)O)c(=O)n2cc(Cc3cccc(Cl)c3F)ccc12 [Example 44, 7-(3-chloro-2-fluorobenzyl)-1-(isobutyrylaminomethyl)-4-oxo-4H-quinolizine-3-carboxylic acid] | 10 to 100 nM |
| O=C(NCc1cc(C(=O)O)c(=O)n2cc(Cc3cccc(Cl)c3F)ccc12)c1ccccc1 [Example 45, 1-(benzoylaminomethyl)-7-(3-chloro-2-fluorobenzyl)-4-oxo-4H-quinolizine-3-carboxylic acid] | 10 to 100 nM |
| CCOC(=O)NCc1cc(C(=O)O)c(=O)n2cc(Cc3cccc(Cl)c3F)ccc12 [Example 46, 7-(3-chloro-2-fluorobenzyl)-1-(ethoxycarbonylaminomethyl)-4-oxo-4H-quinolizine-3-carboxylic acid] | 10 to 100 nM |
| O=C(O)c1cc(CNC(=O)N2CCOCC2)c2ccc(Cc3cccc(Cl)c3F)cn2c1=O [Example 47, 7-(3-chloro-2-fluorobenzyl)-1-([(morpholinocarbonyl)amino]methyl)-4-oxo-4H-quinolizine-3-carboxylic acid] | 10 to 100 nM |
| CCNC(=O)NCc1cc(C(=O)O)c(=O)n2cc(Cc3cccc(Cl)c3F)ccc12 [Example 48, 7-(3-chloro-2-fluorobenzyl)-1-[(3-ethylureido)methyl]-4-oxo-4H-quinolizine-3-carboxylic acid] | 10 to 100 nM |
| O=C(Cc1ccccc1)NCc1cc(C(=O)O)c(=O)n2cc(Cc3cccc(Cl)c3F)ccc12 [Example 49, 7-(3-chloro-2-fluorobenzyl)-4-oxo-1-(phenylacetylaminomethyl)-4H-quinolizine-3-carboxylic acid] | 10 to 100 nM |
| O=C(O)C(=O)NCc1cc(C(=O)O)c(=O)n2cc(Cc3cccc(Cl)c3F)ccc12 [Example 50, 7-(3-chloro-2-fluorobenzyl)-1-[(oxalylamino)methyl]-4-oxo-4H-quinolizine-3-carboxylic acid] | 10 to 100 nM |
| O=C(COc1ccccc1)NCc1cc(C(=O)O)c(=O)n2cc(Cc3cccc(Cl)c3F)ccc12 [Example 51, 7-(3-chloro-2-fluorobenzyl)-4-oxo-1-[(2-phenoxyacetylamino)methyl]-4H-quinolizine-3-carboxylic acid] | 10 to 100 nM |
| CO[C@@H](C)C(=O)NCc1cc(C(=O)O)c(=O)n2cc(Cc3cccc(Cl)c3F)ccc12 [Example 52, 7-(3-chloro-2-fluorobenzyl)-1-[((S)-2-methoxypropionylamino)methyl]-4-oxo-4H-quinolizine-3-carboxylic acid] | 10 to 100 nM |
| CO[C@H](C)C(=O)NCc1cc(C(=O)O)c(=O)n2cc(Cc3cccc(Cl)c3F)ccc12 [Example 53, 7-(3-chloro-2-fluorobenzyl)-1-[((R)-2-methoxypropionylamino)methyl]-4-oxo-4H-quinolizine-3-carboxylic acid] | 10 to 100 nM |
| O=C(O)CCC(=O)NCc1cc(C(=O)O)c(=O)n2cc(Cc3cccc(Cl)c3F)ccc12 [Example 54, 1-[(3-carboxypropionylamino)methyl]-7-(3-chloro-2-fluorobenzyl)-4-oxo-4H-quinolizine-3-carboxylic acid] | 10 to 100 nM |
| CCOCC(=O)NCc1cc(C(=O)O)c(=O)n2cc(Cc3cccc(Cl)c3F)ccc12 [Example 55, 7-(3-chloro-2-fluorobenzyl)-1-[(2-ethoxyacetylamino)methyl]-4-oxo-4H-quinolizine-3-carboxylic acid] | 10 to 100 nM |
